Where “and” joins values, the source holds several entries; their conditions need not be identical. Identical values can stand only once. Toxic doses and inconclusive results are not listed.
System: BDF1 mice, P388 leukemia ip, median survival T/C
Assay: NCI In Vivo Anticancer Drug Screen. Data for tumor model P388 Leukemia (intraperitoneal) in B6D2F1 (BDF1) mice
Settings: endpoint: median survival time, higher = longer survival
Procedure, shortened: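 Steps: implant the tumour, treat one group with compound and another with vehicle, record survival, then divide treated by control.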

[1] = dose: 100.0 mg/kg/injection, schedule: Q04DX003 (ip), vehicle: Klucel (hydroxypropylcellulose) (HPC)
[2] = dose: 200.0 mg/kg/injection, schedule: Q04DX003 (ip), vehicle: Klucel (hydroxypropylcellulose) (HPC)
[3] = dose: 400.0 mg/kg/injection, schedule: Q04DX003 (ip), vehicle: Klucel (hydroxypropylcellulose) (HPC)
[4] = dose: 100.0 mg/kg/injection, schedule: Q04DX003 (ip), vehicle: saline with Tween-80
[5] = dose: 200.0 mg/kg/injection, schedule: Q04DX003 (ip), vehicle: saline with Tween-80
[6] = dose: 400.0 mg/kg/injection, schedule: Q04DX003 (ip), vehicle: saline with Tween-80
[7] = dose: 100.0 mg/kg/injection, schedule: Q01DX009 (ip), vehicle: saline with Tween-80
[8] = dose: 200.0 mg/kg/injection, schedule: Q01DX009 (ip), vehicle: saline with Tween-80
[9] = dose: 6.25 mg/kg/injection, schedule: Q01DX009 (ip), vehicle: saline with Tween-80
[10] = dose: 12.5 mg/kg/injection, schedule: Q01DX009 (ip), vehicle: saline with Tween-80
[11] = dose: 25.0 mg/kg/injection, schedule: Q01DX009 (ip), vehicle: saline with Tween-80
[12] = dose: 3.13 mg/kg/injection, schedule: Q04DX003 (ip), vehicle: saline with Tween-80
[13] = dose: 25.0 mg/kg/injection, schedule: Q04DX003 (ip), vehicle: saline with Tween-80
[14] = dose: 50.0 mg/kg/injection, schedule: Q01DX009 (ip), vehicle: saline with Tween-80
[15] = dose: 50.0 mg/kg/injection, schedule: Q04DX003 (ip), vehicle: saline with Tween-80

## O=c1ccc2c([nH]1)CCCCC2
dose: 50.0 mg/kg/injection, schedule: Q04DX003 (ip), vehicle: saline sonified
  T/C: 104 % of control
dose: 100.0 mg/kg/injection, schedule: Q04DX003 (ip), vehicle: saline sonified
  T/C: 100 % of control
dose: 200.0 mg/kg/injection, schedule: Q04DX003 (ip), vehicle: saline sonified
  T/C: 95 % of control

## NC(=S)N/N=C/c1c[nH]c2ccccc12
[1]
  T/C: 100 % of control
[2]
  T/C: 113 % of control
[3]
  T/C: 104 % of control

## Cc1ccc(C2(C(=O)O)CC2)cc1
[4]
  T/C: 100 % of control
[5]
  T/C: 104 % of control
[6]
  T/C: 108 % of control

## NC(N)=N/N=C/c1ccc(Cl)c(Cl)c1
dose: 6.25 mg/kg/injection, schedule: Q01DX009 (ip), vehicle: Klucel (hydroxypropylcellulose) (HPC)
  T/C: 102 % of control
dose: 12.5 mg/kg/injection, schedule: Q01DX009 (ip), vehicle: Klucel (hydroxypropylcellulose) (HPC)
  T/C: 100 % of control
dose: 25.0 mg/kg/injection, schedule: Q01DX009 (ip), vehicle: Klucel (hydroxypropylcellulose) (HPC)
  T/C: 94 % of control
dose: 50.0 mg/kg/injection, schedule: Q01DX009 (ip), vehicle: Klucel (hydroxypropylcellulose) (HPC)
  T/C: 100 % of control

## O=C1C(N2CC2)=C(N2CCCC(O)C2)C(=O)C(N2CC2)=C1N1CCCC(O)C1 (stereo not given)
dose: 1.0 mg/kg/injection, schedule: Q01DX009 (ip), vehicle: saline
  T/C: 195 % of control
dose: 2.0 mg/kg/injection, schedule: Q01DX009 (ip), vehicle: saline
  T/C: 99 % of control

## O=[N+]([O-])c1ccccc1N/N=C\c1c(Cl)n(-c2ccccc2)c2ccccc12
dose: 100.0 mg/kg/injection, schedule: Q04DX002 (ip), vehicle: Klucel (hydroxypropylcellulose) (HPC)
  T/C: 90 % of control
dose: 200.0 mg/kg/injection, schedule: Q04DX002 (ip), vehicle: Klucel (hydroxypropylcellulose) (HPC)
  T/C: 99 % of control
dose: 400.0 mg/kg/injection, schedule: Q04DX002 (ip), vehicle: Klucel (hydroxypropylcellulose) (HPC)
  T/C: 115 % of control

## Cc1c(C)c(CO)c(C)c(C)c1CO
dose: 8.0 mg/kg/injection, schedule: Q01DX009 (ip), vehicle: Klucel (hydroxypropylcellulose) (HPC)
  T/C: 96 % of control
dose: 12.0 mg/kg/injection, schedule: Q01DX009 (ip), vehicle: Klucel (hydroxypropylcellulose) (HPC)
  T/C: 89 % of control
dose: 12.0 mg/kg/injection, schedule: Q04DX003 (ip), vehicle: Klucel (hydroxypropylcellulose) (HPC)
  T/C: 104 % of control
dose: 18.0 mg/kg/injection, schedule: Q01DX009 (ip), vehicle: Klucel (hydroxypropylcellulose) (HPC)
  T/C: 96 % of control
dose: 25.0 mg/kg/injection, schedule: Q04DX003 (ip), vehicle: Klucel (hydroxypropylcellulose) (HPC)
  T/C: 95 % of control
dose: 50.0 mg/kg/injection, schedule: Q04DX003 (ip), vehicle: Klucel (hydroxypropylcellulose) (HPC)
  T/C: 104 % of control

## C[C@@H]1CC2=CC(=O)C=C[C@]2(C)[C@H]2CC[C@@]3(C)[C@@H](CC[C@]3(C)O)[C@H]12
dose: 50.0 mg/kg/injection, schedule: Q01DX009 (sc), vehicle: steriod suspending solution
  T/C: 95 % of control
dose: 100.0 mg/kg/injection, schedule: Q01DX009 (ip), vehicle: Klucel (hydroxypropylcellulose) (HPC)
  T/C: 88 % of control
dose: 100.0 mg/kg/injection, schedule: Q01DX009 (sc), vehicle: steriod suspending solution
  T/C: 90 % of control
[1]
  T/C: 91 % of control
dose: 200.0 mg/kg/injection, schedule: Q01DX009 (ip), vehicle: Klucel (hydroxypropylcellulose) (HPC)
  T/C: 100 % of control
dose: 200.0 mg/kg/injection, schedule: Q01DX009 (sc), vehicle: steriod suspending solution
  T/C: 86 % of control
[2]
  T/C: 95 % of control
dose: 400.0 mg/kg/injection, schedule: Q01DX009 (ip), vehicle: Klucel (hydroxypropylcellulose) (HPC)
  T/C: 88 % of control
[3]
  T/C: 91 % of control

## CNC(=S)/N=C(\N)n1nc(C)cc1C
dose: 15.0 mg/kg/injection, schedule: Q01DX009 (ip), vehicle: saline with Tween-80
  T/C: 104 % of control
dose: 30.0 mg/kg/injection, schedule: Q01DX009 (ip), vehicle: saline with Tween-80
  T/C: 112 % of control
dose: 60.0 mg/kg/injection, schedule: Q01DX009 (ip), vehicle: saline with Tween-80
  T/C: 112 % of control

## CN=C1N[N+]2=C(C)CSCC2(C)S1 (stereo not given)
dose: 50.0 mg/kg/injection, schedule: Q01DX009 (ip), vehicle: saline
  T/C: 100 % of control
dose: 100.0 mg/kg/injection, schedule: Q01DX009 (ip), vehicle: saline
  T/C: 100 % of control
dose: 200.0 mg/kg/injection, schedule: Q01DX009 (ip), vehicle: saline
  T/C: 97 % of control

## C[C@]12C=CC(=O)C[C@@H]1CC[C@@H]1[C@@H]2C(=O)C[C@]2(C)C(=O)CC[C@@H]12
[7]
  T/C: 100 % of control
[8]
  T/C: 100 % of control
dose: 400.0 mg/kg/injection, schedule: Q01DX009 (ip), vehicle: saline with Tween-80
  T/C: 109 % of control

## C[n+]1ccc2ccccc2c1CCCc1nccc2ccccc12
[9]
  T/C: 100 % of control
[10]
  T/C: 120 % of control
[11]
  T/C: 116 % of control

## CN(C)c1ccc(Nc2c3ccccc3nc3ccccc23)cc1
dose: 36.0 mg/kg/injection, schedule: Q01DX010 (ip), vehicle: saline
  T/C: 159 % of control and 172 % of control
dose: 54.0 mg/kg/injection, schedule: Q01DX010 (ip), vehicle: saline
  T/C: 159 % of control and 172 % of control
dose: 80.0 mg/kg/injection, schedule: Q01DX010 (ip), vehicle: saline
  T/C: 213 % of control and 218 % of control
dose: 120.0 mg/kg/injection, schedule: Q01DX010 (ip), vehicle: saline
  T/C: 268 % of control

## CC(C)(C)C1CC[N-]CC1.CC(C)(C)C1CC[N-]CC1.[Cl][Pt+2]([Cl])([Cl])[Cl]
dose: 0.78 mg/kg/injection, schedule: Q01DX009 (ip), vehicle: saline
  T/C: 110 % of control
dose: 1.56 mg/kg/injection, schedule: Q01DX009 (ip), vehicle: saline
  T/C: 115 % of control and 117 % of control
dose: 3.12 mg/kg/injection, schedule: Q01DX009 (ip), vehicle: saline
  T/C: 100 % of control and 102 % of control and 111 % of control
dose: 6.25 mg/kg/injection, schedule: Q01DX009 (ip), vehicle: saline
  T/C: 86 % of control and 108 % of control
dose: 12.5 mg/kg/injection, schedule: Q01DX009 (ip), vehicle: saline
  T/C: 115 % of control
dose: 25.0 mg/kg/injection, schedule: Q01DX009 (ip), vehicle: saline
  T/C: 91 % of control and 115 % of control

## CCCCCc1cc(/C=C2/N=C(c3ccc[nH]3)C=C2OC)[nH]c1C
dose: 1.0 mg/kg/injection, schedule: Q01DX009 (ip), vehicle: other
  T/C: 118 % of control
dose: 2.0 mg/kg/injection, schedule: Q01DX009 (ip), vehicle: other
  T/C: 118 % of control

## CCCCCCCCCCCCCCCC[N+](C)(C)c1ccccc1
dose: 1.56 mg/kg/injection, schedule: Q04DX003 (ip), vehicle: saline with Tween-80
  T/C: 110 % of control
[12]
  T/C: 115 % of control
[13]
  T/C: 108 % of control

## Clc1ccccc1-c1ncc2cnccn12
dose: 0.19 mg/kg/injection, schedule: Q01DX009 (ip), vehicle: saline with Tween-80
  T/C: 102 % of control
dose: 0.39 mg/kg/injection, schedule: Q01DX009 (ip), vehicle: saline with Tween-80
  T/C: 102 % of control
dose: 0.78 mg/kg/injection, schedule: Q01DX009 (ip), vehicle: saline with Tween-80
  T/C: 106 % of control
dose: 1.56 mg/kg/injection, schedule: Q01DX009 (ip), vehicle: saline with Tween-80
  T/C: 102 % of control
[9]
  T/C: 99 % of control and 103 % of control
[10]
  T/C: 86 % of control
[11]
  T/C: 88 % of control
[13]
  T/C: 115 % of control
[14]
  T/C: 86 % of control
[15]
  T/C: 107 % of control
[4]
  T/C: 88 % of control

## O=[N+]([O-])c1ccc(Cl)c2c([N+](=O)[O-])cccc12
[15]
  T/C: 104 % of control
[4]
  T/C: 109 % of control
[5]
  T/C: 109 % of control

## CS(=O)(=O)OCCN(CCOS(C)(=O)=O)c1ccc(/C=N/Nc2ncnc3nc[nH]c23)cc1
[12]
  T/C: 120 % of control
dose: 66.0 mg/kg/injection, schedule: Q04DX003 (ip), vehicle: saline with Tween-80
  T/C: 156 % of control
[4]
  T/C: 168 % of control and 182 % of control
dose: 150.0 mg/kg/injection, schedule: Q04DX003 (ip), vehicle: saline with Tween-80
  T/C: 165 % of control
[5]
  T/C: 159 % of control

## OC(c1ccccc1)c1ccccc1CN1CCCNC1=S (stereo not given)
[14]
  T/C: 95 % of control
[7]
  T/C: 103 % of control
[8]
  T/C: 94 % of control

## CNS(=O)(=O)c1ccc2c(c1)[nH]c(=S)n2C
[4]
  T/C: 95 % of control
[5]
  T/C: 109 % of control
[6]
  T/C: 100 % of control
